Laboratory results: patent EP4613273A1, “TREATMENT OF BONE LOSS” (priority 2024, dated 2025)
Counter-ions that a name gives are not always drawn. Like-named read-outs stand apart in the source and are kept apart here.

What was measured:
Type in all cases: in vivo
[1] = Safety of repeated oral administration in healthy cats
Method: (§1) MIV-701 besylate salt was administered once daily for 14 days to 4 healthy cats at three increasing doses: 2 mg/kg, 10 mg/kg and 50 mg/kg.
(§2) The three doses were consecutively administered for 14 days with a >5-day washout period between two dose levels.
(§3) Each treatment period can be resumed as follows: • J0 (T+24h): first administration, withdrawal of blood samples for pharmacokinetic and plasma CTX-1 assessment (pre-dose and 0.5h, 1h, 2h, 4h, 8h and 24h after first drug administration), pre-dose blood samples for hematology and clinical biochemistry (baseline values for safety assessment). • J5 ([…]) and J8: pre-dose blood samples. • J13: last administration, withdrawal of plasma samples for pharmacokinetic and plasma CTX-1 assessment (pre-dose and 0.5h, 1h, 2h, 4h, 8h and 24h after last drug administration), pre-dose sampling for hematology and clinical biochemistry (baseline values for safety assessment). • J15 to J≥19: washout period.

[2] = Plasma pharmacokinetic of MIV-701 after single and repeated oral administration of MIV-701 besylate salt in healthy beagle dogs; details: for Cmax at 312 h / Tmax at 312 h / AUC(0-inf) at 312 h / AUC(0-t) at 312 h / half-life at 312 h / Cmax at 0 h / Tmax at 0 h / AUC(0-inf) / AUC(0-t) / half-life: dog; for AUC(0-inf) at 312 h / AUC(0-inf): read-out: AUC(0-infini) (converted); for AUC(0-t) at 312 h / AUC(0-t): read-out: AUC(0-tfinal) (converted); for half-life at 312 h / half-life: read-out: T1/2 elimination (converted)
Method: (§4) Compound Ib besylate salt (referred to as MIV-701 besylate salt) was administered once daily for 14 days to 3 healthy beagle dogs at three different doses: 1 mg/kg, 10 mg/kg and 100 mg/kg.
(§5) The doses were consecutively administered for 14 days with a >5-day washout period between two dose levels.
(§6) Each treatment period can be resumed as follows: • J0 (T+24h): first Compound Ib besylate salt administration, withdrawal of blood samples for pharmacokinetic and plasma CTX-1 assessment (pre-dose and 0.5h, 1h, 2h, 4h, 8h and 24h after drug administration), pre-dose blood samples for hematology and clinical biochemistry (baseline values for safety assessment). • J1 to J12: pre-dose blood samples • J13: last Compound Ib besylate salt administration, withdrawal of plasma samples for pharmacokinetic and plasma CTX-1 assessment (pre-dose and 0.5h, 1h, 2h, 4h, 8h and 24h after drug administration), pre-dose sampling for hematology and clinical biochemistry (baseline values for safety assessment). • J15-J≥19: washout period.
(§7) After centrifugation of blood samples plasma aliquots were stored at -20°C. After thawing on ice, 30 µL of plasma were transferred into 1.5 ml microtube containing 270 µL acetonitrile. Microtubes were then vigorously stirred and then centrifuged (12000 rpm, 10 min, 4°C) and the supernatant was transferred in Matrix tube for LC-MS/MS analysis. Calibration curve (9 points, 3 to 30 000 nM) was obtained by spiking plasma samples from naive dogs with appropriate quantities of Compound Ib.
(§8) Equipment: LC-MS/MS Acquity I Class-Wevo TQD (Waters®): - Acquity I Class ∘ Column: Waters® Acquity BEH C8, 50*2.1mm, 1.7 µm (40°C) ∘ Mobile phase: • ▪ A: Ammonium Formate 5mM, pH=3.8 • ▪ B: Ammonimuformate 5 mM in CH3CN 5% aqueous, pH=3.8 ∘ Injection volume: 1 µL ∘ Speed: 600 µL/min ∘ Gradient: […]
(§9) - Xevo TQD ∘ Source temperature: 150°C ∘ Desolvatation temperature: 600°C ∘ Cone gaz speed: 50L/h ∘ Desolvatation gaz speed: 1200L/h - Analytes MS characteristics
Terminal elimination half-life (t1/2) was calculated according to the following formula: T1/2 elimination = ln(2)/kel [formula] kel= slope of ln(C)=f(temps) calculated on the last points of the curves (elimination phase)/ MIV-701 exposure (Area Under the Curve; AUCt) was calculated according to trapezoidal method according to the following formula: AUCt−>inf = [C]t /kel [formula]

[3] = MIV-701/MIV-06404 plasma exposure ratio in dog; details: single oral administration, exposure ratio (peak area)
Method: as §4, §6, §7, §8, §9

[4] = Safety of 14-day repeated oral administration in healthy beagle dogs
Method: as §4, §5, §6

[5] = MIV-701/MIV-06404 plasma exposure ratio in cat; details: for MIV-701/MIV-06404 exposure ratio: D13 (repeated); for MIV-701/MIV-06404 ratio: single oral administration (D0), exposure ratio
Method: as §1, §3
After centrifugation of blood samples plasma aliquots were stored at -20°C._After thawing on ice, 30 µL of plasma were transferred into 1.5 ml microtube containing 270 µL acetonitrile. Microtubes were then vigorously stirred and then centrifuged (12000 rpm, 10 min, 4°C) and the supernatant was transferred in Matrix tube for LC-MS/MS analysis.
as §8
- Xevo TQD • ∘ Source temperature: 150°C • ∘ Desolvatation temperature: 600°C • ∘ Cone gaz speed: 50L/h • ∘ Desolvatation gaz speed: 1200L/h - Analytes MS characteristics

CTX-1 = test: Plasma CTX-1 (bone resorption marker) in healthy cats; details: for pre-dose plasma CTX-1 during repeated administration: once-a-day oral 2 and 10 mg/kg, 14 days
Method: as §1, §2, §3

[6] = plasma MIV-701, oral 1 mg/kg once daily, Day 13 (repeated)
[7] = plasma MIV-701, oral 1 mg/kg, Day 0 (single)
[8] = plasma MIV-701, oral 10 mg/kg once daily, Day 13 (repeated)
[9] = plasma MIV-701, oral 10 mg/kg, Day 0 (single)
[10] = plasma MIV-701, oral 100 mg/kg once daily, Day 13 (repeated)
[11] = plasma MIV-701, oral 100 mg/kg, Day 0 (single)

In the case of CC(C)C[C@H](NC(=O)c1ccc(-c2csc(N3CCN(C)CC3)n2)cc1)C(=O)N1C[C@H](F)[C@H]2OCC(O)(O)[C@H]21 [MIV-701 besylate salt, N-[(S)-1-((3aS,6S,6aS)-6-Fluoro-S-oxo-hexahydro-furo[3,2-b]pyrrole-4-carbony)-3-methyl-butyl]-4-[2-(4-methyl-piperazin-1-yl)-thiazol-4-yl]-benzamide benzenesulphonate], the “adverse or irreversible effect” value ([1]; oral 2 mg/kg/day and 10 mg/kg/day during 14 days) is reported as “did not induce any adverse or irreversible effect”, the adverse signs ([1]; oral 50 mg/kg/day during 4 days, led to treatment withdrawal, reversible) is reported as “induced some digestive and behavioral degradations” and the “plasma accumulation of MIV-701 (Cmax, AUCs D13 vs D0)” value ([2]; 14-day repeated oral administration, three doses) is reported as “did not show plasma accumulation”. The Cmax at 312 h [2, 6] was 6.6 nM, the Tmax at 312 h [2, 6] was 2 h and the AUC(0-inf) at 312 h [2, 6] was 0.083 µM·h. For the same molecule, the AUC(0-t) at 312 h [2, 6] was 0.036 µM·h, the half-life at 312 h [2, 6] was 8.6 h and the Cmax at 0 h [2, 7] was 20 nM. It also gave a Tmax at 0 h [2, 7] of 0.5 h, an AUC(0-inf) [2, 7] of 0.0488 µM·h and an AUC(0-t) [2, 7] of 0.0429 µM·h. For the same molecule, the half-life [2, 7] was 2.9 h, the Cmax at 312 h [2, 8] was 130 nM and the Tmax at 312 h [2, 8] was 4 h. The AUC(0-inf) at 312 h [2, 8] was 1.91 µM·h, the AUC(0-t) at 312 h [2, 8] was 1.84 µM·h and the half-life at 312 h [2, 8] was 4.9 h. It also gave a Cmax at 0 h [2, 9] of 139 nM, a Tmax at 0 h [2, 9] of 1 h and an AUC(0-inf) [2, 9] of 1.38 µM·h. It also gave an AUC(0-t) [2, 9] of 1.35 µM·h, a half-life [2, 9] of 4.1 h and a Cmax at 312 h [2, 10] of 1620 nM. It also gave a Tmax at 312 h [2, 10] of 1 h, an AUC(0-inf) at 312 h [2, 10] of 21.4 µM·h and an AUC(0-t) at 312 h [2, 10] of 20.7 µM·h. The half-life at 312 h [2, 10] was 4.8 h, the Cmax at 0 h [2, 11] was 1280 nM and the Tmax at 0 h [2, 11] was 8 h. The AUC(0-inf) [2, 11] was 19.9 µM·h, the AUC(0-t) [2, 11] was 19.4 µM·h and the half-life [2, 11] was 4 h. For the same molecule, the “Kel (2-8h)” value [2, 6] was -0.080 h⁻¹, the “Kel (2-8h)” value [2, 7] was -0.236 h⁻¹ and the “Kel (4-24h)” value [2, 8] was -0.142 h⁻¹. The “Kel (8-24h)” value [2, 9] was -0.167 h⁻¹, the “Kel (4-24h)” value [2, 10] was -0.144 h⁻¹ and the “Kel (8-24h)” value [2, 11] was -0.174 h⁻¹. It also gave an MIV-701/MIV06404 ratio ([3]; 1 mg/kg) of 7.0, an MIV-701/MIV06404 ratio ([3]; 10 mg/kg) of 3.6 and an MIV-701/MIV06404 ratio ([3]; 100 mg/kg) of 3.3. For the same molecule, the tolerance ([4]; oral once daily for 14 days, 1, 10 and 100 mg/kg) was “well tolerated at all doses”, the signs of toxicity ([4]; oral once daily for 14 days, regardless of the dose) was “No obvious signs of toxicity” and the MIV-701/MIV-06404 exposure ratio ([5]; 2 mg/kg) was 5.0. For the same molecule, the MIV-701/MIV-06404 exposure ratio ([5]; 10 mg/kg) was 3.4, the MIV-701/MIV-06404 ratio ([5]; 2 mg/kg) was 6.9 and the MIV-701/MIV-06404 ratio ([5]; 10 mg/kg) was 6.2. For the same molecule, the MIV-701/MIV-06404 ratio ([5]; 50 mg/kg) was 3.9, the “inhibition of plasma CTX-1 vs baseline” value (CTX-1; 10 mg/kg once a day, end of the 14 days treatment period) was 60% and the “time of CTX-1 inhibition peak after administration” value (CTX-1; D0, three doses tested) was 4 h. For the same molecule, the “pre-dose plasma CTX-1 during repeated administration” value (CTX-1) was “rapid drop”, the “pre-dose plasma CTX-1 during repeated administration” value (CTX-1; listed as MIV-701-besylate) was “sustained inhibition” and the “CTX-1 plasma concentration 24 hours after administration” value (CTX-1; single dose, all doses tested) was “did not go back to pre-dose concentration”. The “reduction of plasma CTX-1” value (CTX-1; single oral administration (D0) at 2, 10 and 50 mg/kg) was “comparable reduction of plasma CTX-1”.
